Experimental data from US20120058133A1, “INHIBITION OF TRNA SYNTHETASES AND THERAPEUTIC APPLICATIONS THEREOF” (President and Fellows of Harvard College, priority 2009, published 2012).

Columns and labels:
Smad2 phosphorylation = assay: TGFβ-stimulated Smad2 phosphorylation in fibroblasts; format: cell-based, mouse
Experimental: FIG. 30. Proline addition to fibroblasts rescues HF-inhibition of TGFβ Signaling. MEFs were treated with HF for 12 hours in the presence or absence of 2 mM proline, treated with 2 ng/mL TGFβ for 1 hour, and assayed for total Smad2 or pSmad2 by Western blot. Total and pSmad2 levels were quantitated using Image J software (bottom panel). Data are representative of three separate experiments.
FIG. 31. HF Dose response for pGCN2-induction and pSmad2-inhibition. Fibroblasts were treated for 12 hours with the indicated dose of HF and analyzed for Smad2 or GCN2 phosphorylation by Western blot. Data are representative of three separate experiments.
FIG. 32. pSmad2 inhibition by HF develops slowly over time. Fibroblasts were treated for the indicated time with 20 nM HF, then treated for 1 hr with 2 ng/mL TGFβ and analyzed for phosphorylation of Smad2 or GCN2 by Western blot. Data are representative of three separate experiments. Bottom panel: Western data in top panel were quantitated using Image J software.

EPRS = assay: Prolyl-tRNA charging by purified EPRS; format: biochemical, rat
Excerpt: FIG. 23E is a graph showing that HF inhibits purified EPRS activity. EPRS was purified from rat liver and assayed for prolyl-tRNA charging activity as previously described (Ting, S. M., Bogner, P. & Dignam, J. D. Isolation of prolyl-tRNA synthetase as a free form and as a form associated with glutamyl-tRNA synthetase. J Biol Chem 267, 17701-17709, (1992)). Data are representative of three separate experiments.
The effects of HF on prolyl-tRNA charging was examined. RRL were supplemented with ^14C-Pro or ^35S-Met in the presence or absence of HF, and total tRNA was isolated (FIG. 23D).

[1] = tested on: translation in rabbit reticulocyte lysate; assay: In vitro translation in rabbit reticulocyte lysate (RRL); format: biochemical; conditions: for rescue of translation inhibition by added amino acids: excess amino acids (1-2 mM)
Experimental: FIG. 23. HF and FF inhibit prolyl tRNA synthetase activity in vitro. […] Rabbit reticulocyte lysate (RRL) was incubated with luciferase mRNA and translation quantitated in a luminescence assay. A high concentration of mixed or individual amino acids (1 mM of each) was added to rescue translational inhibition. AA Mix 1: Asn, Arg, Val, Glu, Gly; AA Mix2: Lys, Ile, Tyr, Asp, Trp; Mix 3: His, Met, Leu, Ala, Thr; Mix 4: Ser, Phe, Pro, Gln. […] Note log scale of y axis.
Inhibitors (FIG. 22) and proline were assayed as described in FIG. 23A. Note log scale at Y axis. Error bars reflect standard deviation of triplicate determinations.
Short myc-tagged polypeptides of identical sequence (see Example 9, “Materials and Methods”) with the exception that NoPro lacks proline, while ProPro contains a proline dipeptide, were translated in RRL in the presence of indicated inhibitors. Translation was examined by anti-myc Western blot.
Note log scale of Y axis.
Translation in vitro was performed using rabbit reticulocyte lysates and luciferase mRNA as template. Translation was measured as arbitrary units of luciferase activity using a luminometer based luminescence assay. Log scale presentation of background-subtracted data is shown.

[2] = tested on: amino acid starvation response in splenocytes; assay: In vivo AAR activation in splenocytes of HF-injected mice; design: species or system mouse; conditions: i.p. injection, 6 hours
Experimental: FIG. 20F, left panel, depicts western blot analysis of protein from cells of wild-type mice injected i.p. with vehicle (DMSO) or […] HF. Spleens were harvested 6 hours post injection, red blood cells were removed by NH4Cl lysis buffer and immunoblotting for phosphorylated or total eIF2a was performed on whole cell extracts. FIG. 20F, right panel is a graph depicting levels of AAR-associated gene expression (Asns, Gpt2, eIF4Ebp1) analyzed by quantitative real-time PCR using cDNA from splenocytes of mice treated with DMSO or HF as above. Expression of AAR-associated transcripts were normalized to Hprt levels and data are presented as mean relative expression from duplicate samples ±SD. All data represent 2-3 similar experiments.

O=C(CC1NCCCC1O)Cn1cnc2cc(Br)c(Cl)cc2c1=O (racemic) [HF, halofuginone]
time course of Smad2 inhibition versus GCN2 phosphorylation (Smad2 phosphorylation; 20 nM HF): much slower
reversal of Smad2 phosphorylation inhibition by proline (Smad2 phosphorylation; 2 mM proline): reversed by the addition of proline
TGF-beta-stimulated Smad2 phosphorylation (Smad2 phosphorylation; 12 hours HF, same dose range as GCN2 phosphorylation): reduced TGF-beta-stimulated Smad2 phosphorylation
reconstituted prolyl-tRNA charging reaction with purified EPRS (EPRS): inhibited this reaction
translation of NoPro polypeptide [1]: had no effect on the translation of NoPro
translation of ProPro polypeptide [1]: prevented translation of ProPro
rescue of translation inhibition by added purified EPRS ([1]; 80 ng or 0.5 μg EPRS): rescued HF/FF-inhibition of protein translation
translation of luciferase mRNA ([1]; 400 nM halofuginone): inhibition of translation
eIF2-alpha phosphorylation in RRL ([1]; data not shown): no increase
rescue of translation inhibition by added amino acids [1]: only proline could restore translation
rescue of translation inhibition by added amino acids ([1]; listed as halofuginone): rescues inhibition of translation by halofuginone
translation of luciferase RNA in RRL ([1]; standard amino acid mix): inhibited the translation of luciferase RNA
eIF2α phosphorylation and AAR-associated transcripts in splenocytes ex vivo [2]: increased eIF2α phosphorylation and expression of AAR-associated transcripts
